Experimental data: patent US20220289731A1, “MELANOCORTIN-4 RECEPTOR AGONISTS” (LG CHEM, LTD., priority 2019, published 2022)

Tests used:
MC4R [1] = target: T1, MC4R (Homo sapiens, UniProt P32245); test: Luciferase assay (HEK MC4R-Luc, CRE-LUC); assay type: cell-based; design: expressed in transfected cells; details: HEK MC4R-Luc cells, 5 h incubation
Experimental: In order to measure the agonist ability against MC4R (melanocortin-4 receptor), a cell line that permanently expresses the luciferase gene (CRE-LUC) under the control of MC4R and CRE (cAMP response element) was established. After a mammalian cell expression vector (pCDNA3 (Neo)) (Invitrogen) containing the MC4R gene was prepared, human embryonic kidney (HEK) cell lines were transformed by using Lipofectamine 2000 (Invitrogen) together with a vector (pCRE-Luc)(Stratagen) expressing a luciferase gene (CRE-LUC) under the control of a cAMP response element (CRE). Transformed cell lines (HEK MC4R-Luc) were incubated in a 37° C. incubator in the presence of 5% CO2 for 24 hours by using Dulbecco's Modified Eagles Medium (DMEM) containing 10% Heat-Inactivated Fetal Bovine Serum (GIBCO/BRL). The cell lines were incubated for four days in the presence of Dulbecco's Modified Eagles Medium (DMEM) containing 10 ml of selection medium (10% Heat-Inactivated Fetal Bovine Serum (GIBCO/BRL), 100 unit/ml of penicillin (GIBCO/BRL), 100 unit/ml of streptomycin (GIBCO/BRL), 800 μg/ml of Geneticin (G418) (GIBCO/BRL). The process of removing cells killed by the selection medium by replacing the medium with 10 ml of a new selection medium was repeated three times, once every 4 days. Individual colonies formed by the finally selected and propagated clones were transferred under a microscope to a 24-well cell culture plate containing 1 ml of selection medium per well and incubated for 4 days. Forskolin (SIGMA) was treated to a final concentration of 10 μM, and then incubated for five hours in a 37° C. incubator in the presence of 5% CO2. Each well was treated with 50 μl of a Bright-Glo luciferase reagent (Promega) and left at room temperature for 15 minutes, and then the luminescence of each well was measured by using a luminometer (Victor).
HEK MC4R-Luc cells were added to each well of a 96-well luminometer cell culture plate (Costar) to a size of 2.5×10^4 cells in 100 μl of a culture medium and then incubated in a 37° C. incubator in the presence of 6% CO2 for 18 hours. […] Each well was treated with 50 μl of a Bright-Glo luciferase reagent (Promega) and left at room temperature for five minutes, and then the luminescence of each well was measured by using a luminometer (Victor). […] EC0.5 MSH is expressed as a concentration that induces 50% of the maximum amount of luminescence that can be induced by NDP-α-MSH, and EC50 is expressed as a concentration that induces 50% of the maximum amount of luminescence that can be induced by each agonist. The measurements were measured using statistical software (Prizm).

MC4R [2] = target: T1, MC4R; test: cAMP assay (cAMP Hunter Gs-coupled CHO-K1 cell line); assay type: cell-based; design: expressed in transfected cells; host or cells: CHO-K1 (cAMP Hunter Gs-coupled cell line); details: CHO-K1 cells overexpressing MC4R, 30 min at 37° C.
Excerpt: The melanocortin receptor is a type of G-protein coupled receptor (GPCR), and the main role of G-protein is to activate secondary transducers to regulate cellular responses to many physiological stimuli through signal transduction. MC4R is a Gs-coupled receptor, and it is known that if MC4R interacts with an agonist, adenylate cyclase (AC) is activated to increase the concentration of cyclic AMP (cAMP), which is one of the secondary transducers in cells. Therefore, it is possible to evaluate the activity of melanocortin receptors by measuring the generation of cAMP signals.
After cAMP Hunter Gs-coupled cell lines (CHO-K1 cell line) in which each of MC1R, MC3R, MC4R and MCSR was overexpressed were established so that the increase in the cAMP level in cells due to agonist reaction was measurable, the cells were inoculated into each well of a white cell culture plate and incubated for 24 hours in a 37° C. incubator in the presence of 5% CO2. After the incubation, the medium was removed, and 15 μl of a 2:1 HBBS/10 mM HEPES:cAMP XS+Ab reagent was added. After 5 μl of the sample diluted 4 times with buffer was added, the vehicle concentration was set to 1%, and the MC4R agonist compound diluted at each step concentration was added, followed by reaction at 37° C. for 30 minutes. The activity (%) of each agonist compound is expressed as 100%×(average RLU value of sample−average RLU value of vehicle control)/(average RLU value of max control−average RLU value of vehicle control), and the value was analyzed by CBIS data analysis suite (ChemInnovation, CA).

CYP2C9 = CYP2C9 (Homo sapiens, UniProt P11712); test: CYP inhibition, recombinant enzyme, fluorescence; assay type: in vitro ADME; details: 10 μM compound; for inhibition at 30 min, 10 µM: human, recombinant CYP2C9, pH 7.4, 30 min pre-incubation, read-out: CYP inhibition (%) at 10 μM, 2C9
CYP2C9, sequence (P11712 whole entry): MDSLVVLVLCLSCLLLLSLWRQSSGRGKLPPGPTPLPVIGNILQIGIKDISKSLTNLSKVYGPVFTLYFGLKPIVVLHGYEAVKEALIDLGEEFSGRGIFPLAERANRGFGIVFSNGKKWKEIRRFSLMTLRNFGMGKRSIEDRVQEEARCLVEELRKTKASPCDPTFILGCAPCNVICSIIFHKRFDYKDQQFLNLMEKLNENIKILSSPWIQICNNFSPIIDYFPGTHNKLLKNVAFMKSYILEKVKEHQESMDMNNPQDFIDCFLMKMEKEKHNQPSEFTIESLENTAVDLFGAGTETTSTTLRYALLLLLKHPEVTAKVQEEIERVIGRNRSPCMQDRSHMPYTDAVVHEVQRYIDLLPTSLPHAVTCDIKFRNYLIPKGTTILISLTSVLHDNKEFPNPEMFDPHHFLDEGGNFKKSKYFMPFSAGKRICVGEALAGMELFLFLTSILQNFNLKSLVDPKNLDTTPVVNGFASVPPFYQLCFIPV
Experimental: The following Table 8 was referred for the use of a probe substrate, positive control, and isozyme and measurement conditions with respect to the measurement of the inhibitory ability of each substance. [table] […] The buffer spiked with experimental compound was mixed with the same volume of CYP isozyme prep solution so that the final concentration was 10 μM, followed by pre-warming for 10 minutes in a 37° C. fluorescence plate-reader. Each well NRS solution (NADPH Regeneration System: 0.22 mM β-NADP, 2.8 mM glucose-6-phosphate, and 0.6 units/mL of glucose-6-phosphate dehydrogenase) was added, followed by pre-incubation for 30 minutes. Thereafter, the reaction was initiated by adding the substrate to the well subjected to pre-incubation and monitored at intervals of one minute at the measurement wavelength for each substrate for 30 minutes. The measured values obtained from the positive control and the compound of Example 1 were compared with the fluorescence intensity of a negative control (no inhibition or compound) to confirm the inhibitory ability of each compound against isozyme. Inhibitory activity (%) was expressed based on the following criteria: […]

[3] = system: mouse obesity model induced by high fat diet; test: Mouse obesity model induced by high fat diet; assay type: in vivo, C57BL/6Ntaconic mice; details: oral once a day, high-fat-diet obese mice
Experimental: The effect of melanocortin-4 receptor agonists on obesity was evaluated by using the mouse obesity model induced with a high fat diet.
Five-week-old male C57BL/6Ntaconic mice were fed with a 60 kcal % fat diet (D12492, Research Diet.) for 15 weeks to induce obesity. The compound of Example 1, the compounds of the comparative examples (A95 and A96), and sibutramine as a positive control were prepared in distilled water and orally administered to […] mouse obesity models induced by a high-fat diet once a day from day 1 to day 16. From Day 1 to Day 16, the body weight was measured once a day, the dietary intake was measured five times a week, and drinking water intake was measured twice a week. Blood glucose and glycated hemoglobin were measured on Day 15, and all animals were sacrificed on Day 17. Blood was collected through the abdominal vena cava, and the liver and epididymal adipose tissues were removed and weighed. The collected blood was placed in a heparin tube and centrifuged to separate plasma, and then plasma biochemical analysis was performed.

T1 sequence (P32245 whole entry, species assumed): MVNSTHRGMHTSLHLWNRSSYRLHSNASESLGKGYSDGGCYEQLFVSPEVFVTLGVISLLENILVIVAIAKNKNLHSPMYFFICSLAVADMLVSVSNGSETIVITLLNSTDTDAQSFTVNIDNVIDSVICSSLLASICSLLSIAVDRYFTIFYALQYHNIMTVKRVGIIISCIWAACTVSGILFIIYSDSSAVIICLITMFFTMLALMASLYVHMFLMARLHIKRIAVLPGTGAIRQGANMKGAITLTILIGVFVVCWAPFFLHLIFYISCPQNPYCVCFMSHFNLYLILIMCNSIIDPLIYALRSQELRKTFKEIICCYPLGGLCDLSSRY

| EC50 (MC4R [1]) | EC50 (MC4R [2]) | inhibition at 30 min, 10 µM (CYP2C9) | Inhibitory ability against CYP2C9 (in words) (CYP2C9) | SMILES | Difference in weight change rate to vehicle ([3]; Day 12, 10 mg/kg) | Difference in weight change rate to vehicle ([3]; Day 12, 30 mg/kg) |
| --- | --- | --- | --- | --- | --- | --- |
| 0.562 nM | 36.5 nM | < 50% | – | CC(C)C(=O)N([C@H]1C[C@@H](C(=O)N2CCOCC2)N(C(=O)[C@@H]2CN(C(C)(C)C)C[C@H]2c2ccc(Cl)cc2)C1)[C@H]1CC[C@@H](C)CC1.Cl [Example 1, N-((3S,5S)-1-((3S,4R)-1-(tert-butyl)-4-(4-chlorophenyl)pyrrolidine-3-carbonyl)-5-(morpholine-4-carbonyl)pyrrolidin-3-yl)-N-((1s,4R)-4-methylcyclohexyl)isobutyramide hydrochloride] | – | – |
| 17.4 nM | 335 nM | – | – | CC(=O)N(C1CCC(C)(C)CC1)[C@H]1C[C@@H](C(=O)N2CCOCC2)N(C(=O)[C@@H]2CN(C(C)(C)C)C[C@H]2c2ccc(F)cc2F)C1.Cl [Comparative Example 1 (A95), N-((3S,5S)-1-((3S,4R)-1-(tert-butyl)-4-(2,4-difluorophenyl)pyrrolidine-3-carbonyl)-5-(morpholine-4-carbonyl)pyrrolidin-3-yl)-N-(4,4-dimethylcyclohexyl)acetamide hydrochloride] | −4.8% | −4.0% |
| 5.48 nM | 150 nM | > 50% | very high inhibitory ability | CC(=O)N(C1CCC(C)(C)CC1)[C@H]1C[C@@H](C(=O)N2CCOCC2)N(C(=O)[C@@H]2CN(C(C)(C)C)C[C@H]2c2ccc(Cl)cc2)C1.Cl [Comparative Example 2 (A96), N-((3S,5S)-1-((3S,4R)-1-(tert-butyl)-4-(4-chlorophenyl)pyrrolidine-3-carbonyl)-5-(morpholine-4-carbonyl)pyrrolidin-3-yl)-N-(4,4-dimethylcyclohexyl)acetamide hydrochloride] | −0.2% | −7.1% |
